{
  "source": "paper PMC7050258",
  "about": "“Inhibition of MGAT2 modulates fat‐induced gut peptide release and fat intake in normal mice and ameliorates obesity and diabetes in ob/ob mice fed on a high‐fat diet” (FEBS Open Bio, 2020)",
  "key": {"[1]": {"molecular_target": "mouse MGAT2 (Mus musculus, UniProt Q80W94)", "sequence (Q80W94 whole entry)": "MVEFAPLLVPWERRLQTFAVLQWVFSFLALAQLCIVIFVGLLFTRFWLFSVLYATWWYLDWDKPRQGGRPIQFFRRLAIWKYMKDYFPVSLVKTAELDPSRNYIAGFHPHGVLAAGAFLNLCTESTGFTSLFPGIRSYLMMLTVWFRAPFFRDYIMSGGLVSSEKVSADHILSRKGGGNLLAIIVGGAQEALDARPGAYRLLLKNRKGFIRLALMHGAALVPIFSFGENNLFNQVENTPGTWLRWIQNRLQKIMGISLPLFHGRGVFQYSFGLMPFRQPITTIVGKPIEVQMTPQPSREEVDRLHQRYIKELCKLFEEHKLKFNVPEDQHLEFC", "assay": "in vitro inhibitory activity against MGAT2 (mouse)", "assay_type": "biochemical", "experimental": "(§1) CpdB, CpdA, and pioglitazone were synthesized at Takeda Pharmaceutical Co., Ltd. (Tokyo, Japan). The in vitro inhibitory activities of CpdB and CpdA against MGAT2 and related acyltransferases (DGAT1, DGAT2, and ACAT1) were evaluated as described in our previous report 17 and patent application 19. Liraglutide (Victoza) was purchased from Novo Nordisk Pharma Ltd. (Bagsvaerd, Denmark). All other chemicals were of analytical grade and purchased from Wako Pure Chemicals (Osaka, Japan)."}, "[2]": {"molecular_target": "T1, DGAT2 human (Homo sapiens, UniProt Q96PD7)", "T1 sequence (Q96PD7 1-388)": "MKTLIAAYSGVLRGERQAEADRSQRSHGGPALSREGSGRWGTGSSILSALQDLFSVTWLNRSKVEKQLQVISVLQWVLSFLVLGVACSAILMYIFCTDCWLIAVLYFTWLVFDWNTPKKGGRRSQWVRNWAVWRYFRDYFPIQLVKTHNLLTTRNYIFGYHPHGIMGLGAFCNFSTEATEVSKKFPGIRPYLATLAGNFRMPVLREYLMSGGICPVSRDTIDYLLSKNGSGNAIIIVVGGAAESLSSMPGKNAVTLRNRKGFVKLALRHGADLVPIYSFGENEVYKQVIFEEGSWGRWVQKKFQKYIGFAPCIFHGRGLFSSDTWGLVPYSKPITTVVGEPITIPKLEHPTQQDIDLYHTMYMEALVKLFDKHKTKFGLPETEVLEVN", "assay": "in vitro inhibitory activity against DGAT2", "assay_type": "biochemical", "experimental": "as §1"}, "[3]": {"tested_on": "C57BL/6J mice", "assay": "Fat-induced gut peptide release and plasma TG after meal or oil load", "assay_type": "in vivo, mouse", "details": "for Plasma total GLP-1 at 3 h, AVE / ΔPlasma total PYY AUC (0-2 h), AVE / Plasma total GLP-1 at 3 h, individual animal / ΔPlasma total PYY AUC (0-2 h), individual animal: CpdB 10 mg/kg oral; for Plasma total GLP-1 at 3 h, AVE / ΔPlasma total PYY AUC (0-2 h), AVE / Plasma TG at 2 h after oil load, AVE: mean, N=5; for Plasma total GLP-1 at 3 h, individual animal / ΔPlasma total PYY AUC (0-2 h), individual animal / Plasma TG at 2 h after oil load, individual animal: single animal values", "experimental": "CpdB was suspended in 0.5% methylcellulose. Thirty minutes after administration, fat was loaded via oral gavage of either olive oil (8 mL·kg^−1) or liquid meal as described above (10 mL·kg^−1). Blood samples were collected precompound administration (defined as 0 h) and 1, 2, and 3 h after fat loading. Plasma levels of peptide tyrosine–tyrosine (PYY) and GLP‐1 were measured. To confirm the in vivo efficacy of CpdB, plasma TG levels were measured 2 h after olive oil loading. Mice orally loaded with water (8 mL·kg^−1) following vehicle administration were prepared as the control group.\n(§2) Blood samples were collected from the tail or facial vein without anesthesia and centrifuged at 1500 g for 10 min at 4 °C to isolate the plasma. To prevent degradation of incretin hormone, blood samples were treated with not only heparin/aprotinin but also a dipeptidyl peptidase‐4 (DPP‐4) inhibitor. Plasma alanine aminotransferase […] levels were measured by an Autoanalyzer 7180 (Hitachi High‐Technologies Corporation, Tokyo, Japan). GHb was measured with an automated GHb analyzer (HLC‐723G8; Tosoh, Tokyo, Japan). Plasma insulin was measured with an ELISA kit (Shibayagi Co., Ltd., Gunma, Japan). Plasma levels of total GLP‐1 and total PYY were also measured with an ELISA kit (Wako Pure Chemicals)."}, "[4]": {"tested_on": "HFD-fed ob/ob mice", "assay": "HFD-fed ob/ob mice study", "assay_type": "in vivo, mouse", "experimental": "Male ob/ob mice were fed an HFD (D12451; Research Diets, Inc.) from 8 weeks of age to the end of the study. After 2 weeks of HFD feeding, the mice were divided into groups based on their body weight, food intake, glycated hemoglobin (GHb), and plasma biochemical parameters. […] Compounds were suspended in 0.5% methylcellulose. Body weight and food intake were monitored during the study. On day 34, blood was collected and GHb and plasma biochemical parameters were measured. In addition, body composition was analyzed by EchoMRI‐900 (Hitachi Aloka Medical, Ltd., Tokyo, Japan). On day 36, the mice in the vehicle‐ and CpdB‐treated group were individually placed in the metabolic chamber of an Oxymax system (Columbus Instruments, Columbus, OH, USA). After 3 h of adaptation, oxygen consumption (VO2) and carbon dioxide production (VCO2) were analyzed for 22 h (from 13:00 to 11:00). During the measurement, dosing of vehicle or CpdB was performed at 18:00. Respiratory quotient (RQ) and energy expenditure (EE) were calculated with the following formulas: RQ=VCO2/VO2 EEkcal/h=3.815+1.232×VCO2/VO2×VO2\nas §2"}, "[5]": {"details": "CpdB 30 mg/kg, pioglitazone 3 mg/kg oral once daily, mean"}, "[6]": {"details": "CpdB 30 mg/kg, pioglitazone 3 mg/kg oral once daily, single animal values"}, "[7]": {"details": "EchoMRI, day 34, CpdB 30 mg/kg, pioglitazone 3 mg/kg, mean"}, "[8]": {"details": "EchoMRI, day 34, CpdB 30 mg/kg, pioglitazone 3 mg/kg, single animal values"}, "[9]": {"details": "dark phase, day 36, CpdB 30 mg/kg, mean"}, "[10]": {"details": "dark phase, day 36, CpdB 30 mg/kg, single animal values"}, "[11]": {"details": "day 34, CpdB 30 mg/kg, pioglitazone 3 mg/kg oral once daily, mean ± SD, n=8"}, "[12]": {"details": "light phase, day 36, CpdB 30 mg/kg, mean"}, "[13]": {"details": "light phase, day 36, CpdB 30 mg/kg, single animal values"}},
  "note": "Several values for one entry are separate records, joined by “and”; a condition that tells them apart may be missing. Equal entries are not always repeated.",
  "data": [
    {"smiles": "CC(C)(OC(=O)N[C@H]1CC[C@H](OC(=O)N2CCc3cc(S(=O)(=O)Nc4c(F)cc(Cl)cc4F)cc(N4CCCC4=O)c32)CC1)C(F)(F)F", "note": "[CpdB]", "values": [
      {"measurement": "IC50", "setting": "[1]", "result": 0.85, "unit": "nM"},
      {"measurement": "IC50", "setting": "[2]", "result": "> 30000", "unit": "nM"},
      {"measurement": "Plasma total GLP-1 at 3 h, AVE", "setting": "[3]; liquid meal load", "result": 1.78, "unit": "pM"},
      {"measurement": "ΔPlasma total PYY AUC (0-2 h), AVE", "setting": "[3]; liquid meal load", "result": 6.19, "unit": "pMxh"},
      {"measurement": "Plasma total GLP-1 at 3 h, individual animal", "setting": "[3]; liquid meal load", "result": "4.08 pM and 1.57 pM and 0.30 pM and 2.65 pM"},
      {"measurement": "ΔPlasma total PYY AUC (0-2 h), individual animal", "setting": "[3]; liquid meal load", "result": "7.70 pMxh and -9.56 pMxh and 10.56 pMxh and 11.27 pMxh and 10.99 pMxh"},
      {"measurement": "Plasma TG at 2 h after oil load, AVE", "setting": "[3]; oil load, 10 mg/kg oral", "result": 242.5, "unit": "mg/dL"},
      {"measurement": "Plasma TG at 2 h after oil load, individual animal", "setting": "[3]; oil load, 10 mg/kg oral, 10 mg/kg", "result": "165.0 mg/dL and 186.0 mg/dL and 337.8 mg/dL and 259.8 mg/dL and 264.0 mg/dL"},
      {"measurement": "Plasma TG at 2 h after oil load, AVE", "setting": "[3]; oil load, 30 mg/kg oral", "result": 219.8, "unit": "mg/dL"},
      {"measurement": "Plasma TG at 2 h after oil load, individual animal", "setting": "[3]; oil load, 30 mg/kg oral, 30 mg/kg", "result": "261.0 mg/dL and 281.4 mg/dL and 164.4 mg/dL and 231.0 mg/dL and 161.4 mg/dL"},
      {"measurement": "Plasma total GLP-1 at 3 h, AVE", "setting": "[3]; oil load", "result": 17.63, "unit": "pM"},
      {"measurement": "ΔPlasma total PYY AUC (0-2 h), AVE", "setting": "[3]; oil load", "result": 68.45, "unit": "pMxh"},
      {"measurement": "Plasma total GLP-1 at 3 h, individual animal", "setting": "[3]; oil load", "result": "14.07 pM and 19.72 pM and 15.79 pM and 16.41 pM and 22.18 pM"},
      {"measurement": "ΔPlasma total PYY AUC (0-2 h), individual animal", "setting": "[3]; oil load", "result": "83.34 pMxh and 44.80 pMxh and 90.28 pMxh and 47.69 pMxh and 76.14 pMxh"},
      {"measurement": "Body weight change from initial, AVE", "setting": "[4]; [5]", "result": 16.96, "unit": "%"},
      {"measurement": "Cumulative food intake, AVE", "setting": "[4]; [5]", "result": 119.28, "unit": "g"},
      {"measurement": "Body weight change from initial, individual animal", "setting": "[4]; [6]", "result": "14.99% and 19.62% and 18.91% and 14.63% and 13.72% and 24.18% and 12.96% and 16.65%"},
      {"measurement": "Cumulative food intake, individual animal", "setting": "[4]; [6]", "result": "119.82 g and 117.97 g and 119.56 g and 119.18 g and 110.06 g and 129.88 g and 111.80 g and 125.96 g"},
      {"measurement": "Body composition, Fat, AVE", "setting": "[4]; [7]", "result": 59.70, "unit": "%"},
      {"measurement": "Body composition, Lean, AVE", "setting": "[4]; [7]", "result": 40.30, "unit": "%"},
      {"measurement": "Body composition, Fat, individual animal", "setting": "[4]; [8]", "result": "63.06% and 55.96% and 61.22% and 59.99% and 59.40% and 60.55% and 59.10% and 58.29%"},
      {"measurement": "Body composition, Lean, individual animal", "setting": "[4]; [8]", "result": "38.78% and 40.01% and 40.60% and 39.45% and 40.90% and 41.71% and 36.94% and 44.04%"},
      {"measurement": "GHb, Pre", "setting": "[4]; before dosing, mean ± SD, n=8", "result": "5.9 ± 0.4", "unit": "%"},
      {"measurement": "Plasma ALT, Pre", "setting": "[4]; before dosing, mean ± SD, n=8", "result": "378 ± 76", "unit": "U·L^−1"},
      {"measurement": "Plasma AST, Pre", "setting": "[4]; before dosing, mean ± SD, n=8", "result": "333 ± 64", "unit": "U·L^−1"},
      {"measurement": "Plasma insulin, Pre", "setting": "[4]; before dosing, mean ± SD, n=8", "result": "106 ± 30", "unit": "ng/mL"},
      {"measurement": "ΔGHb, AVE", "setting": "[4]; change 34 days after repeated dosing, CpdB 30 mg/kg, pioglitazone 3 mg/kg oral once daily, mean", "result": -0.45, "unit": "%"},
      {"measurement": "ΔGHb, individual animal", "setting": "[4]; change 34 days after repeated dosing, CpdB 30 mg/kg, pioglitazone 3 mg/kg, single animal values", "result": "0.60% and -0.50% and -0.20% and -1.10% and -0.60%"},
      {"measurement": "Average EE, Dark, AVE", "setting": "[4]; [9]", "result": 0.55, "unit": "kcal/h"},
      {"measurement": "Average RQ, Dark, AVE", "setting": "[4]; [9]", "result": 0.87},
      {"measurement": "Average EE, Dark, individual animal", "setting": "[4]; [10]", "result": "0.61 kcal/h and 0.55 kcal/h and 0.54 kcal/h and 0.52 kcal/h and 0.53 kcal/h"},
      {"measurement": "Average RQ, Dark, individual animal", "setting": "[4]; [10]", "result": "0.88 and 0.87 and 0.85 and 0.86"},
      {"measurement": "GHb, Post", "setting": "[4]; [11]", "result": "5.4 ± 0.6", "unit": "%"},
      {"measurement": "Plasma ALT, Post", "setting": "[4]; [11]", "result": "632 ± 144", "unit": "U·L^−1"},
      {"measurement": "Plasma AST, Post", "setting": "[4]; [11]", "result": "492 ± 122", "unit": "U·L^−1"},
      {"measurement": "Plasma insulin, Post", "setting": "[4]; day 34, CpdB 30 mg/kg, pioglitazone 3 mg/kg oral once daily, nonfasting, mean ± SD, n=8", "result": "109 ± 40", "unit": "ng/mL"},
      {"measurement": "Average EE, Light, AVE", "setting": "[4]; [12]", "result": 0.45, "unit": "kcal/h"},
      {"measurement": "Average RQ, Light, AVE", "setting": "[4]; [12]", "result": 0.83},
      {"measurement": "Average EE, Light, individual animal", "setting": "[4]; [13]", "result": "0.46 kcal/h and 0.42 kcal/h and 0.43 kcal/h and 0.44 kcal/h and 0.49 kcal/h and 0.48 kcal/h"},
      {"measurement": "Average RQ, Light, individual animal", "setting": "[4]; [13]", "result": "0.82 and 0.83 and 0.84 and 0.80"}
    ]}
  ]
}
